The IC50 is the point on the concentration scale where inhibition reaches its midpoint.

In test [1] the target is T1, Tyrosine-protein phosphatase non-receptor type 12 (Homo sapiens, UniProt Q05209).
T1 sequence (Q05209 whole entry): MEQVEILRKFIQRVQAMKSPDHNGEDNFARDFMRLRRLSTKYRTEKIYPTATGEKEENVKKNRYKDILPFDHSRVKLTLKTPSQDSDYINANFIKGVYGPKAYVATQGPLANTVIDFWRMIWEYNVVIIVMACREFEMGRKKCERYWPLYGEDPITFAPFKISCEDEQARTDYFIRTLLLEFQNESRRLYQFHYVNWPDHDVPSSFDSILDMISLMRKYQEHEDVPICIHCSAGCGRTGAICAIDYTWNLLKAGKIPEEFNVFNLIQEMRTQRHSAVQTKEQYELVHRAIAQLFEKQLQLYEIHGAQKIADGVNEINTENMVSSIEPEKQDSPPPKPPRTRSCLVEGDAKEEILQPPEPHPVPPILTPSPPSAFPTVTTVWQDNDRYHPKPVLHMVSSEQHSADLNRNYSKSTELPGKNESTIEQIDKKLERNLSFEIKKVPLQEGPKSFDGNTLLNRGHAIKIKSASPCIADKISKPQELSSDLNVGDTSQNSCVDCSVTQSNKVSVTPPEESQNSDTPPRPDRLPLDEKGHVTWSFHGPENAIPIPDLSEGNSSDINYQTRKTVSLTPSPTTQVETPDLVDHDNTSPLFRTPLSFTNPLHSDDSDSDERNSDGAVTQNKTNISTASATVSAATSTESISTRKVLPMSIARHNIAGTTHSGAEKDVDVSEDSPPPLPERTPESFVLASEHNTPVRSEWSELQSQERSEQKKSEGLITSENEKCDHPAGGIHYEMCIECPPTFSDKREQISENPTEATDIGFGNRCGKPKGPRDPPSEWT
Nature of the test: Inhibition of N-terminal His-tagged PTPN12 catalytic domain (1 to 294 residues) (unknown origin) expressed in Escherichia coli BL21 (DE3) cells.

Test [2] has as its target T2, Tyrosine-protein phosphatase non-receptor type 1 (Homo sapiens, UniProt P18031).
T2 sequence (P18031 whole entry): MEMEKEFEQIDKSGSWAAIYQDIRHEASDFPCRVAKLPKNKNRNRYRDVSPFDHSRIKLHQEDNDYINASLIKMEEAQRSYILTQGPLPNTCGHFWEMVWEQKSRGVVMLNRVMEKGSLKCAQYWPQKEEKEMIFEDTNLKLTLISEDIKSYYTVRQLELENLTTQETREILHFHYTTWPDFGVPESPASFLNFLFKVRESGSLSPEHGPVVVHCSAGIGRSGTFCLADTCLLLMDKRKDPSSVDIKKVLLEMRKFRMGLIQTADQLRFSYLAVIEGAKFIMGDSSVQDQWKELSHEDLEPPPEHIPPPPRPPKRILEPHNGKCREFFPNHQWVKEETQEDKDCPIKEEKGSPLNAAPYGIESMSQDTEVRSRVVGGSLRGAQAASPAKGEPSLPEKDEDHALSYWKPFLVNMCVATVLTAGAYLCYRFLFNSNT
The experiment in a line: Inhibition of N-terminal His-tagged PTP1B catalytic domain (1 to 294 residues) (unknown origin) expressed in Escherichia coli BL21 (DE3) cells.

Test [3] in a line: Selectivity ratio of IC50 for inhibition of N-terminal His-tagged PTPN5 catalytic domain (1 to 294 residues) (unknown origin) expressed in Escherichia coli BL21 (DE3) cells to IC50 for inhibition of N-terminal His-tagged LYP catalytic domain (1 to 294 residues) (unknown origin) expressed in Escherichia coli BL21 (DE3) cells using pNPP as substrate.
Test [4] in a line: Selectivity ratio of IC50 for inhibition of N-terminal His-tagged SSH2 catalytic domain (1 to 294 residues) (unknown origin) expressed in Escherichia coli BL21 (DE3) cells to IC50 for inhibition of N-terminal His-tagged LYP catalytic domain (1 to 294 residues) (unknown origin) expressed in Escherichia coli BL21 (DE3) cells using pNPP as substrate.
The target of test [5] is T3, Tyrosine-protein phosphatase non-receptor type 5 (Homo sapiens, UniProt P54829).
T3 sequence (P54829 whole entry): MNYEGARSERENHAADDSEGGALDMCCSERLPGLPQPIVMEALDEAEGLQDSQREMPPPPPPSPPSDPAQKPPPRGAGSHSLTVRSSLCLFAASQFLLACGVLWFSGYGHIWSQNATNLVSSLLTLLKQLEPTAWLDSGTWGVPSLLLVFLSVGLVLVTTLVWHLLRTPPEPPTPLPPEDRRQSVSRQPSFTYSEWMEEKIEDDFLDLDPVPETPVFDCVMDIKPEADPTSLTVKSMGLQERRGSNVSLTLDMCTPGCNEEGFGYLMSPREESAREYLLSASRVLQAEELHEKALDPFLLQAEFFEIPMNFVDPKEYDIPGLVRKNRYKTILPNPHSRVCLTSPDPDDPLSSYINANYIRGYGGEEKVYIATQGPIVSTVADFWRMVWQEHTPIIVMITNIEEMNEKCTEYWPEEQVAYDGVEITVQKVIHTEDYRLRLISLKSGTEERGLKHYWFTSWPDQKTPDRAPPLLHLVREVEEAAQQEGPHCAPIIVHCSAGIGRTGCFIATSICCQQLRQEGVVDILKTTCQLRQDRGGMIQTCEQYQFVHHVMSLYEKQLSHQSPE
The experiment in a line: Inhibition of N-terminal His-tagged PTPN5 catalytic domain (1 to 294 residues) (unknown origin) expressed in Escherichia coli BL21 (DE3) cells.

Each structure is given as a SMILES string.

For the compound `O=C(O)c1cc2cc(N(Cc3ccc(OCc4ccccc4)cc3)S(=O)(=O)c3ccc(-c4ccccc4)cc3)ccc2o1`, the IC50 in test [1] was 11.7 µM; in test [2] it was 10.7 µM; in test [5] it was greater than 20 µM. The Ratio IC50 in test [3] was greater than 3.5; in test [4] it was greater than 5.5.

With `O=C(O)c1cc2cc(N(Cc3ccc(-c4ccccc4)cc3)S(=O)(=O)c3ccc(-c4cccc(O)c4)cc3)ccc2o1`, the results for the IC50 in test [1], in test [2] and in test [5] were 10.6 µM, 6.4 µM and greater than 20 µM, respectively. Also, the Ratio IC50 in test [3] and in test [4] was greater than 5.5 each time.

`CC(=O)C1=C(C)N=c2s/c(=C/c3ccc(OCc4ccc(C(=O)O)cc4)cc3)c(=O)n2C1c1ccc(N(C)C)cc1` (stereo unspecified): the results for the IC50 in test [1], in test [2] and in test [5] were 8.2 µM, 7.1 µM and greater than 20 µM, respectively.

As for `O=C(O)c1cc2cc(N(Cc3cccc(-c4ccccc4)c3)S(=O)(=O)c3ccc(-c4ccccc4)cc3)ccc2o1`, the IC50 in test [1] was 6.4 µM; in test [2], 5.9 µM; in test [5], greater than 20 µM. Moreover, the Ratio IC50 in test [3] and in test [4] was greater than 5.5 throughout.

Regarding `COc1ccc(-c2ccc(CN(c3ccc4oc(C(=O)O)cc4c3)S(=O)(=O)c3ccc(Cl)c([N+](=O)[O-])c3)cc2)cc1`, the results for the IC50 in test [1], in test [2] and in test [5] were 12.3 µM, 13.7 µM and greater than 20 µM, respectively.

These data come from ChEMBL document CHEMBL5620412, “Discovery of benzofuran-2-carboxylic acid derivatives as lymphoid tyrosine phosphatase (LYP) inhibitors for cancer immunotherapy” (Eur J Med Chem, 2023).
